Results taken from PMC11576293, “New series of 4,6-diaryl pyrimidines: facile synthesis and antiproliferative activity as dual EGFR/VEGFR-2 inhibitors” (Frontiers in Chemistry, 2024).

Columns and labels:
[1] = Cell viability assay (MTT) on normal cells; format: cell-based; settings: human, MCF-10A normal mammary gland epithelial cells, 4 days incubation
Method: (§1) This experiment examines the impact of the newly developed compounds 9–29 on normal cell lines to assess their safety level. The vitality of the investigated compounds was assessed using the MCF-10 A cell line, a normal human mammary gland epithelial cell line. Following 4 days of incubation on MCF-10 A cells with each examined compound at a concentration of 50 μM, the vitality of the cells was assessed using the MTT test ([Mahmoud et al., 2022]; [Mekheimer et al., 2022]).
as §1, with “The viability” for “The vitality”, “of 9–29” for “of the investigated compounds”, “2022]). Refer to Supplementary Material A1 for more details. […]” for “2022]).”
4.2. Biological evaluation
4.2.1. Cytotoxic activity using MTT Assay and evaluation of IC50
MTT assay was carried out to study the effect of compounds on mammary epithelial cells (MCF-10A). The medium in which cells were propagated contained Dulbecco's modified Eagle's medium (DMEM)/ Ham's F-12 medium (1:1) supplemented with epidermal growth factor (20 ng/mL), hydrocortisone (500 ng/mL), insulin (10 μg/mL), 2 mM glutamine and 10% foetal calf serum.
After every 2-3 days, the cells were passaged using trypsin ethylenediamine tetra acetic acid (EDTA). The cells were seeded at a density of 10^4 cells mL-1 in flat-bottomed culture plates containing 96 wells each. After 24 h, medium was removed from the plates and the compounds in (in 0.1% DMSO) were added (in 200 μL medium to yield a final concentration of 0.1% v/v) to the wells of plates. A single compound was designated with four wells followed by incubation of plates for 96h at 37°C. After incubation, medium was removed completely from the plates followed by addition of MTT (0.4 mg/mL in medium) to each well and subsequent incubation of plates for 3h. MTT (along with the medium) was removed and DMSO (150μL) was added to each well of the culture plates, followed by vertexing and subsequent measurement of absorbance (at 540 nm) using microplate reader. The data are shown as percentage inhibition of proliferation in comparison with controls containing 0.1% DMSO. […]

A-549 = test: Antiproliferative assay (MTT); format: cell-based; settings: Homo sapiens, A549, A-549 (lung), read-out: Antiproliferative activity IC50 ± SEM, A-549
Description: (§2) The MTT test was employed for this investigation ([Hisham et al., 2022]; [El-Sherief et al., 2019]; [Ramadan et al., 2020]). Table 2 presents the four cancer cell lines’ median inhibitory concentration (IC50) and GI50 (average IC50) values.
(§3) The MTT test was employed for this investigation ([Hisham et al., 2022]; [El-Sherief et al., 2019]; [Ramadan et al., 2020]). The IC50 values were derived from dose-response tests. The reported data are derived from at least two independent studies, each comprising three replicates per concentration. See Supplementary Material A1 for more details.
(§4) (in 0.1% DMSO) were added (in 200 μL medium to yield a final concentration of 0.1% v/v) to the wells of plates. A single compound was designated with four wells followed by incubation of plates for 96h at 37°C. After incubation, medium was removed completely from the plates followed by addition of MTT (0.4 mg/mL in medium) to each well and subsequent incubation of plates for 3h. MTT (along with the medium) was removed and DMSO (150μL) was added to each well of the culture plates, followed by vertexing and subsequent measurement of absorbance (at 540 nm) using microplate reader. The data are shown as percentage inhibition of proliferation in comparison with controls containing 0.1% DMSO.
(§5) 4.2.1.2. Assay for antiproliferative effect […]
(§6) (10%) and 1 µg/mL each of aprotinin, leupeptin and pepstatin for 120 min. The purification was performed either at 4 °C or on ice. To record autophosphorylation level, EGFR kinase assay was carried out on the basis of DELFIA/Time-Resolved Fluorometry. The compounds were first
(§7) (1 picture or pasted object on this page, not shown here)

HT-29 = test: Antiproliferative assay (MTT); format: cell-based; settings: Homo sapiens, HT-29 (colon), read-out: Antiproliferative activity IC50 ± SEM, HT-29
Description: as §2, §3, §4, §5, §6, §7

Panc-1 = test: Antiproliferative assay (MTT); format: cell-based; settings: Homo sapiens, Panc-1 (pancreatic), read-out: Antiproliferative activity IC50 ± SEM, Panc-1
Description: as §2, §3, §4, §5, §6, §7

MCF-7 = test: Antiproliferative assay (MTT); format: cell-based; settings: Homo sapiens, MCF7, MCF-7 (breast), read-out: Antiproliferative activity IC50 ± SEM, MCF-7
Description: as §2, §3, §4, §5, §6, §7

[2] = system: four cancer cell lines (A-549, MCF-7, Panc-1, HT-29); test: Antiproliferative assay, average over four cancer cell lines; format: cell-based; settings: Homo sapiens; average of the four cancer cell lines; read-out: Average IC50 (GI50)
Description: Table 2 presents the four cancer cell lines’ median inhibitory concentration (IC50) and GI50 (average IC50) values.
The IC50 values were derived from dose-response tests. The reported data are derived from at least two independent studies, each comprising three replicates per concentration. See Supplementary Material A1 for more details.

Bax = Bax activation assay; format: cell-based, human; settings: for Bax Conc: A-549 cancer cells
Method: 4.2.7. Bax activation assay
Bring all reagents, except the human Bax-α Standard, to room temperature for at least 30 minutes prior to opening. The human Bax-α Standard solution should not be left at room temperature for more than 10 minutes. All standards, controls and samples should be run in duplicate. Refer to the Assay Layout Sheet to determine the number of wells to be used and put any remaining wells with the desiccant back into the pouch and seal the ziploc. Store unused wells at 4 °C. Pipet 100 μL of Assay Buffer into the S0 (0 pg/mL standard) wells. Pipet 100 μL of Standards #1 through #6 into the appropriate wells. Pipet 100 μL of the Samples into the appropriate wells. Tap the plate gently to mix the contents. Seal the plate and incubate at room temperature on a plate shaker for 1 hour at ~500 rpm. Empty the contents of the wells and wash by adding 400 μL of wash solution to every well. Repeat the wash 4 more times for a total of 5 washes. After the final wash, empty or aspirate the wells and firmly tap the plate on a lint free paper towel to remove any remaining wash buffer.
Pipet 100 μL of yellow Antibody into each well, except the Blank. Seal the plate and incubate at room temperature on a plate shaker for 1 hour at ~500 rpm. Empty the contents of the wells and wash by adding 400 μL of wash solution to every well. Repeat the wash 4 more times for a total of 5 washes. After the final wash, empty or aspirate the wells and firmly tap the plate on a lint free paper towel to remove any remaining wash buffer. Add 100 μL of blue Conjugate to each well, except the Blank. Seal the plate and incubate at room temperature on a plate shaker for 30 minutes […]
Pipet 100 μL of Substrate Solution into each well. Incubate for 30 minutes at room temperature on a plate shaker at ~500 rpm. Pipet 100 μL Stop Solution to each well. Blank the plate reader against the Blank wells, read the optical density at 450 nm. Calculate the average net Optical Density (OD) bound for each standard and sample by subtracting the average Blank OD from the average OD for each standard and sample. Using linear graph paper, plot the Average Net OD for each standard versus Bax concentration in each standard. Approximate a straight line through the points.
The concentration of Bax in the unknowns can be determined by interpolation. […]

Bcl-2 = Bcl-2 inhibition assay; format: cell-based, human; settings: A-549 cell line
Method: 4.2.8. Bcl-2 inhibition assay
Mix all reagents thoroughly without foaming before use. Wash the microwells twice with approximately 300 μL Wash Buffer per well with thorough aspiration of microwell contents between washes. Take caution not to scratch the surface of the microwells. After the last wash, empty the wells and tap microwell strips on absorbent pad or paper towel to remove excess Wash Buffer. Use the microwell strips immediately after washing or place upside down on a wet absorbent paper for not longer than 15 minutes. […] Add 100 μL of Sample […]
Diluent in duplicate to all standard wells and to the blank wells. Prepare standard (1:2 dilution) in duplicate ranging from 32 ng/mL to 0.5 ng/mL. Add 100 μL of Sample Diluent, in duplicate, to the blank wells. Add 80 μL of Sample Diluent, in duplicate, to the sample wells. Add 20 μL of each Sample, in duplicate, to the designated wells. Add 50 μL of diluted biotin-conjugate to all wells, including the blank wells. Cover with a plate cover and incubate at room temperature, on a microplate shaker at 100 rpm if available, for 2 hours. Remove plate cover and empty the wells.
Wash microwell strips 3 times as described in step 2. Add 100 μL of diluted Streptavidin-HRP to all wells, including the blank wells. Cover with a plate cover and incubate at room temperature, on a microplate shaker at 100 rpm if available, for 1 hour. Remove plate cover and empty the wells.
Wash microwell strips 3 times as described in step 2. Proceed to the next step. Pipette 100 μl of mixed TMB Substrate Solution to all wells, including the blanks. Incubate the microwell strips at room temperature (18° to 25°C) for about 15 minutes, if available on a rotator set at 100 rpm.
Avoid direct exposure to intense light. The point, at which the substrate reaction is stopped, is often determined by the ELISA reader. Many ELISA readers record absorbance only up to 2.0
O.D. Therefore, the color development within individual microwells must be watched by the person running the assay and the substrate reaction stopped before positive wells are no longer properly detectable. Stop the enzyme reaction by quickly pipetting 100 μL of Stop Solution into each well, including the blank wells. It is important that the Stop Solution is spread quickly and uniformly throughout the microwells to completely inactivate the enzyme. Results must be read immediately after the Stop Solution is added or within one hour i f the microwell strips are stored at 2 - 8°C in the dark. Read absorbance of each microwell on a spectrophotometer using 450 nm as the primary wavelength.

Row | melting point [°C] | IC50 [2] [nM] | SMILES | viability at 4 days, 50 µM [1] [%] | IC50 (A-549) [nM] | IC50 (HT-29) [nM] | IC50 (Panc-1) [nM] | IC50 (MCF-7) [nM] | Bax Conc (Bax) [pg/mL] | Bax Conc (Bax; listed as staurosporine) [pg/mL] | Bax Fold change (Bax; compared to untreated A-549 cancer cells) [fold] | Bcl-2 Conc (Bcl-2) [ng/mL] | Bcl-2 Fold reduction (Bcl-2; versus control) [fold]
1 | 245 to 247 | 83 | COc1ccc(-c2cc(-c3cccc(OC)c3)nc(SCc3ccccc3)n2)cc1 [Compound 21, 2-(Benzylthio)-6-(3-methoxyphenyl)-4-(4-methoxyphenyl)pyrimidine] | 89 | 83 ± 7 | 82 ± 8 | 82 ± 8 | 86 ± 8 |  |  |  |  | 
2 |  |  | C#Cc1cccc(Nc2ncnc3cc(OCCOC)c(OCCOC)cc23)c1 [Erlotinib, reference compound] |  | 30 ± 3 | 30 ± 3 | 30 ± 3 | 40 ± 3 |  |  |  |  | 
3 |  |  | CN[C@@H]1C[C@H]2O[C@@](C)([C@@H]1OC)n1c3ccccc3c3c4c(c5c6ccccc6n2c5c31)C(=O)NC4 [Staurosporine, reference compound] |  |  |  |  |  | 280 ± 5 | 280 | 35 | 1.10 | 5
